# Reference: patent US20240158446A1, “CYCLIC COMPOUND HAVING SELECTIVE INHIBITORY ACTION ON KRAS OVER HRAS AND NRAS” (CHUGAI SEIYAKU KABUSHIKI KAISHA, priority 2021, published 2024)
# Where two headings read alike, the source gives them in different places. *1 amine or outer side, *2 acyl side, *3 side chain or, on linkers, in order; H or OH if unused. Where a SMILES comes first, the peptide text is derived from it. Bridges are numbered along the chain shown (N, C = ends). [ ]: non-standard residue; d: D form. The star is where a group is joined. hPhe(3-Cl-4-CF3) = N[C@@H](CCc1ccc(C(F)(F)F)c(Cl)c1)C(=O)O; X21 = Cc1ccc(C[C@@H](C(=O)[*:2])N(CC2CC2)[*:1])cc1; NEtPhe(4-Me) = CCN[C@@H](Cc1ccc(C)cc1)C(=O)O; NMeGly(cPent) = CN[C@H](C(=O)O)C1CCCC1; NMeD = CN[C@@H](CC(=O)O)C(=O)O; NMeL = CN[C@@H](CC(C)C)C(=O)O; Morpholide = C1CN(*)CCO1; NMeA = CN[C@@H](C)C(=O)O; Ac5c = NC1(C(=O)O)CCCC1; Aze = O=C(O)[C@@H]1CCN1; Sar = CNCC(=O)O
# Columns and labels:
# [1] = molecular target: GDP-bound KRAS wild-type protein (Homo sapiens, UniProt P01116); experiment: Binding to KRAS by surface plasmon resonance (SPR), Single Cycle Kinetics; settings: GDP-bound KRAS wild-type protein, read-out: KRAS KD
# [2] = molecular target: GDP-bound HRAS wild-type protein (Homo sapiens, UniProt P01112); experiment: Binding to HRAS by surface plasmon resonance (SPR), Single Cycle Kinetics
# [3] = molecular target: GDP-bound NRAS wild-type protein (Homo sapiens, UniProt P01111); experiment: Binding to NRAS by surface plasmon resonance (SPR), Single Cycle Kinetics
# [4] = SPR, GDP-bound HRAS wild-type protein vs GDP-bound KRAS wild-type protein
# [5] = SPR, GDP-bound NRAS wild-type protein vs GDP-bound KRAS wild-type protein
# [6] = SPR Single Cycle Kinetics, 1:1 binding model
# Chain of GDP-bound NRAS wild-type protein (P01111 whole entry): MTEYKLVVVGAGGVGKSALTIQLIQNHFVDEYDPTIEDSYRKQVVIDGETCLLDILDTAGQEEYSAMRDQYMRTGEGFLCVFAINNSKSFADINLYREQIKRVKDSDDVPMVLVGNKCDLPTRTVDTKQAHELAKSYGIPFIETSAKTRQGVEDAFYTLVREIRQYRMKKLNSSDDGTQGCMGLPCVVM
# Chain of GDP-bound KRAS wild-type protein (P01116 whole entry): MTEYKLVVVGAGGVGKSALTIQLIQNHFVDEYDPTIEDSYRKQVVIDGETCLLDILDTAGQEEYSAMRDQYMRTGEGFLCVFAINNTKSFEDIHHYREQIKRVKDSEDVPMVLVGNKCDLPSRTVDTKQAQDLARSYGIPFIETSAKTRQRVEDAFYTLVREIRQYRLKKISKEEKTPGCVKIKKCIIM
# Chain of GDP-bound HRAS wild-type protein (P01112 whole entry): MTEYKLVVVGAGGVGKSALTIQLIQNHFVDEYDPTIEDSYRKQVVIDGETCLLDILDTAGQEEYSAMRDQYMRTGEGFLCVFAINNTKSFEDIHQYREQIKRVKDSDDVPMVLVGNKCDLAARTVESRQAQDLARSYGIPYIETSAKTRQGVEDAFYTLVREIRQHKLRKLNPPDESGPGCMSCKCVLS
SMILES,"Kd ([1]; SPR, Single Cycle Kinetics) [nM]","Kd [1, 6] [nM]","HRAS/KRAS (ratio of KD value for HRAS to KD value for KRAS) [2, 4]","NRAS/KRAS (ratio of KD value for NRAS to KD value for KRAS) [3, 5]","HRAS/KRAS (ratio of KD value with respect to HRAS to KD value with respect to KRAS) [2, 4]","NRAS/KRAS (ratio of KD value with respect to NRAS to KD value with respect to KRAS) [3, 5]","HRAS/KRAS (ratio of KD value with respect to GDP-bound HRAS wild-type protein to KD value with respect to KRAS) ([2]; SPR KD ratio HRAS/KRAS, class symbols)","NRAS/KRAS (ratio of KD value with respect to GDP-bound NRAS wild-type protein to KD value with respect to KRAS) ([3]; SPR KD ratio NRAS/KRAS, class symbols)"
CCO[C@@H]1C[C@H]2C(=O)NC3(CCC3)C(=O)N(C)[C@@H](C3CCCC3)C(=O)N(C)[C@H](C(=O)N(C)C)CC(=O)N(C)[C@@H](CC)C(=O)N[C@@H]([C@@H](C)CC)C(=O)N(C)CC(=O)N(C)[C@H]3CCCCN(C3=O)[C@@H](Cc3ccc(C(F)(F)F)cc3)C(=O)N(C)CC(=O)N[C@@H](CCc3cc(F)c(C(F)(F)F)c(F)c3)C(=O)N2C1 [PP0693],,0.016,,,C (A compound having a KD ratio of 0.1 or more and less than 3 is denoted as C),C (A compound having a KD ratio of 0.1 or more and less than 3 is denoted as C),,
CC[C@H](C)[C@@H]1NC(=O)[C@H](C)N(C)C(=O)C[C@@H](C(=O)N2CCOCC2)N(C)C(=O)[C@H](C2CCCC2)N(C)C(=O)C2(CCCC2)NC(=O)[C@@H]2CCCN2C(=O)[C@H](CCc2ccc(C(F)(F)F)c(Cl)c2)NC(=O)CN(C)C(=O)[C@H](Cc2ccc(C)cc2)N(CC)C(=O)[C@@H]2CCN2C(=O)[C@H](C)N(C)C1=O [PP0007] ([NMeA]I[NMeA][Aze][NEtPhe(4-Me)][Sar][hPhe(3-Cl-4-CF3)]P[Ac5c][NMeGly(cPent)][NMeD]-Morpholide; lactam N-11),,0.074,C (A compound having a KD ratio of 0.1 or more and less than 3 is denoted as C),C (A compound having a KD ratio of 0.1 or more and less than 3 is denoted as C),,,,
CC[C@H](C)[C@@H]1NC(=O)[C@H](CC(C)C)N(C)C(=O)C[C@@H](C(=O)N2CCOCC2)N(C)C(=O)[C@H](C2CCCC2)N(C)C(=O)C2(CCCC2)NC(=O)[C@@H]2CCCN2C(=O)[C@H](CCc2ccc(C(F)(F)F)c(Cl)c2)NC(=O)CN(C)C(=O)[C@H](Cc2ccc(C)cc2)N(CC2CC2)C(=O)[C@@H]2CCN2C(=O)[C@H](C)N(C)C1=O [PP0057] ([NMeL]I[NMeA][Aze][X21][Sar][hPhe(3-Cl-4-CF3)]P[Ac5c][NMeGly(cPent)][NMeD]-Morpholide; lactam N-11),,0.21,B (a compound having 3 or more and less than 10 is denoted as B),C (A compound having a KD ratio of 0.1 or more and less than 3 is denoted as C),,,,
"CCO[C@@H]1C[C@H]2C(=O)NC3(CCC3)C(=O)N(C)[C@@H](C3CCCC3)C(=O)N(C)[C@H](C(=O)N(C)C)CC(=O)N(C)[C@@H](CSC)C(=O)N[C@@H]([C@@H](C)CC)C(=O)N(C)CC(=O)N(C)[C@H]3C/C=C\CCN(C3=O)[C@@H](Cc3ccc(C(F)(F)F)cc3)C(=O)N(C)CC(=O)N[C@@H](CCc3cc(F)c(C(F)(F)F)c(F)c3)C(=O)N2C1 [PP1119, (2S,8S,12R,14S,20S,23S,27R,30S,36S,38Z)-20-cyclopentyl-8-[2-[3,5-difluoro-4-(trifluoromethyl)phenyl]ethyl]-12-ethoxy-N,N,4,19,22,26,32,35-octamethyl-30-[(1S)-1-methylpropyl]-27-(methylsulfanylmethyl)-3,6,9,15,18,21,25,28,31,34,42-undecaoxo-2-[[4-(trifluoromethyl)phenyl]methyl]spiro[1,4,7,10,16,19,22,26,29,32,35-undecazatricyclo[34.5.1.0^10,14]dotetracont-38-ene-17,1′-cyclobutane]-23-carboxamide]",0.037,,A (a compound having 10 or more and less than 20 is denoted as A),A (a compound having 10 or more and less than 20 is denoted as A),,,,

# Second part, led by results:
"Kd ([1]; SPR, Single Cycle Kinetics) [nM]","Kd [1, 6] [nM]",SMILES,"HRAS/KRAS (ratio of KD value for HRAS to KD value for KRAS) [2, 4]","NRAS/KRAS (ratio of KD value for NRAS to KD value for KRAS) [3, 5]","HRAS/KRAS (ratio of KD value with respect to HRAS to KD value with respect to KRAS) [2, 4]","NRAS/KRAS (ratio of KD value with respect to NRAS to KD value with respect to KRAS) [3, 5]","HRAS/KRAS (ratio of KD value with respect to GDP-bound HRAS wild-type protein to KD value with respect to KRAS) ([2]; SPR KD ratio HRAS/KRAS, class symbols)","NRAS/KRAS (ratio of KD value with respect to GDP-bound NRAS wild-type protein to KD value with respect to KRAS) ([3]; SPR KD ratio NRAS/KRAS, class symbols)"
0.18,,CCO[C@@H]1C[C@H]2C(=O)NC3(CC(C)(C)C3)C(=O)N(C)[C@@H](C(CC)CC)C(=O)N(C)[C@H](C(=O)N(C)C)CC(=O)N(C)[C@@H](CC(C)C)C(=O)N[C@@H]([C@@H](C)CC)C(=O)N(C)CC(=O)N(C)[C@H]3C/C=C\CCN(C3=O)[C@@H](Cc3ccc(C(F)(F)F)cc3)C(=O)N(C)CC(=O)N[C@@H](CCc3cc(F)c(C(F)(F)F)c(F)c3)C(=O)N2C1 [PP2127],A (a compound having 10 or more and less than 20 is denoted as A),AA (a compound having 20 or more is denoted as AA),,,,
,1.5,CCC[C@H]1C(=O)N[C@@H]([C@@H](C)CC)C(=O)N(C)CC(=O)N(C)[C@H]2C/C=C\CCN(C2=O)[C@@H](Cc2ccc(C(F)(F)F)cc2)C(=O)N(C)CC(=O)N[C@@H](CCc2cc(F)c(C(F)F)c(F)c2)C(=O)N2C[C@H](OCC)C[C@H]2C(=O)NC2(CC(C)(C)C2)C(=O)N(C)[C@@H](C(CC)CC)C(=O)N(C)[C@H](C(=O)N(C)C)CC(=O)N1C [PP2781],,,,,A (a compound having 10 or more and less than 20 is denoted as A),AA (a compound having 20 or more is denoted as AA)
0.41,,CCO[C@@H]1C[C@H]2C(=O)NC3(CC(C)(C)C3)C(=O)N(C)[C@@H](C(CC)CC)C(=O)N(C)[C@H](C(=O)N(C)C)CC(=O)N(C)[C@@H](CC3CCC3)C(=O)N[C@@H]([C@@H](C)CC)C(=O)N(C)CC(=O)N(C)[C@H]3C/C=C\CCN(C3=O)[C@@H](Cc3ccc(C)cc3)C(=O)N(C)CC(=O)N[C@@H](CCc3ccc(C(F)(F)F)c(Cl)c3)C(=O)N2C1 [PP2156],A (a compound having 10 or more and less than 20 is denoted as A),AA (a compound having 20 or more is denoted as AA),,,,
